Activity calls are given as the source filed them.
Columns and labels:
[1] = growth suppression of PTEN-null colon cells, dose response, cell-based, HCT116 PTEN knockout (AID 1047); assay type: functional;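 further: HCT116 colon tumor cells with PTEN knocked out; cells exposed to compound for 60 hours before readout; potency for loss of cell viability measured by luminescence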
[2] = growth suppression of beta-catenin-knockout colon cells, dose response, cell-based, HCT116, human colon tumor (AID 1045); assay type: functional;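 further: HCT116 colon tumor cells with beta catenin knocked out; cells exposed to compound for 60 hours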
[3] = molecular target: T1, DNA repair protein RAD52 homolog (Homo sapiens, UniProt P43351); assay type: functional, biochemical
T1 sequence (P43351 whole entry): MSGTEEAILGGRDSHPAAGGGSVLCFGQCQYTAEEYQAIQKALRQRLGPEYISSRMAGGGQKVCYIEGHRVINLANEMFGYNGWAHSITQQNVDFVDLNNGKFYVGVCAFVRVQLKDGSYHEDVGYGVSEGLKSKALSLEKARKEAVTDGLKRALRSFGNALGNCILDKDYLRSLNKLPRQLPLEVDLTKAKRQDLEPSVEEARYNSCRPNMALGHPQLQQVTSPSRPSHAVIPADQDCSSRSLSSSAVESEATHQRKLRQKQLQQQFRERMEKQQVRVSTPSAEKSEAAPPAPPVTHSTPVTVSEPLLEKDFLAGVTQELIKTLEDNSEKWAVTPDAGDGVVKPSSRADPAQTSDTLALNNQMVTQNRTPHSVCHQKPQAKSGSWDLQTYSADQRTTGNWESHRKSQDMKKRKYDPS

BJ [4] = assay: cytotoxicity toward BJ-TERT fibroblasts, dose response, cell-based, RAS-independent, luminescence (AID 1933); assay type: functional; conditions: Homo sapiens
BJ [5] = assay: cells; assay type: functional, cell-based; conditions: Homo sapiens
BJ [6] = assay: cytotoxicity toward BJ-TERT-LT-ST fibroblasts, dose response, cell-based, RAS-independent, luminescence (AID 1935); assay type: functional; conditions: Homo sapiens;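 further: BJ fibroblasts immortalized with TERT plus LT and ST oncogenes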
[7] = cytotoxicity toward DRD oncogenic fibroblasts, dose response, cell-based, non-viral oncogenic, luminescence (AID 1934); assay type: functional; conditions: Homo sapiens
[8] = molecular target: T2, Rac GTPase-activating protein 1 (Homo sapiens, UniProt Q9H0H5); assay: MgcRacGAP GTPase-activating activity inhibitors, confirmation, biochemical, ADP Hunter fluorescence, primary and confirmatory (AID 624330); assay type: functional
T2 sequence (Q9H0H5 whole entry): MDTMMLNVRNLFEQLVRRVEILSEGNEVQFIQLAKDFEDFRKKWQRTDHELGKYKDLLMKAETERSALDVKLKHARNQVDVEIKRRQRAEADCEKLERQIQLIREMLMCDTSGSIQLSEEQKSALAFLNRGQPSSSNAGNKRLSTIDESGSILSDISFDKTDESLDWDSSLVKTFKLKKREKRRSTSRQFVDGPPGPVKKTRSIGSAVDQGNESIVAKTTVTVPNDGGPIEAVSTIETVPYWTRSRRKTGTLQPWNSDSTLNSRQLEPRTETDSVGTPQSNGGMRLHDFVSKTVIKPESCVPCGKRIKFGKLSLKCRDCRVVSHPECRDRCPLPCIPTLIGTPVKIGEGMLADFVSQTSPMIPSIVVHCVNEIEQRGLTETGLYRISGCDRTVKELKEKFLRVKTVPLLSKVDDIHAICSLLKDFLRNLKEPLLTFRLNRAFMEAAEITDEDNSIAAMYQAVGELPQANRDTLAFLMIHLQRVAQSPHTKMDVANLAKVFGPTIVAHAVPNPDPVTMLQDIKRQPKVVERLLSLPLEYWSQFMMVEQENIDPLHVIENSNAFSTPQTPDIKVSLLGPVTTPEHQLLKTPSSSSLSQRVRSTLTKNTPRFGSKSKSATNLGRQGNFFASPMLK

[9] = microbe, parasite or virus in culture; assay type: functional; conditions: Mycobacterium tuberculosis
[10] = inhibitors of firefly luciferase expression or activity, dose response, H4 neuroglioma cells, luminescence (AID 1990); assay type: functional, cell-based
[11] = Luminescence Cell-Based Dose Response HTS to Identify Inhibitors of 5'UTR Stem-Loop Driven Prion Protein mRNA Translation in H4 Neuroglioblastoma Cells. [Related pubchem assays: 1827 (Project Summary), 1813 (Primary HTS)]; assay type: functional
[12] = inhibitors of SNCA 5'UTR-driven reporter translation, confirmation, H4 neuroglioma cells, luminescence (AID 1988); assay type: functional, cell-based
Cytochrome P450 3A4 = Cytochrome P450 3A4 (Homo sapiens, UniProt P08684); conditions: Potency;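 further: confirmatory qHTS run detecting inhibitors and substrates of CYP3A4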
Chain of Cytochrome P450 3A4 (P08684 whole entry): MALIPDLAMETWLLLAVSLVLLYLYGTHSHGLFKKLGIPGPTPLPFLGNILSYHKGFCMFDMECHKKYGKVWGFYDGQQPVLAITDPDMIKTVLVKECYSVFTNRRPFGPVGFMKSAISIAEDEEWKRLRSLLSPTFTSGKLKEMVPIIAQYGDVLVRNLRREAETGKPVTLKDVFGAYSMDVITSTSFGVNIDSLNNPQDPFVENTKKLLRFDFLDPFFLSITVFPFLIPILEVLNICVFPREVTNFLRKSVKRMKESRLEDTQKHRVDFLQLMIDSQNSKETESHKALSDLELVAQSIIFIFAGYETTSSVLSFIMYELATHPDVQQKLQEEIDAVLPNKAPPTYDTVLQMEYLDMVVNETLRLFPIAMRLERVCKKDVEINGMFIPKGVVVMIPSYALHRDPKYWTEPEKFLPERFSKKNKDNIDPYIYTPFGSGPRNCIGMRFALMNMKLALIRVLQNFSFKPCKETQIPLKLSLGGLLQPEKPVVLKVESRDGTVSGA

[13] = molecular target: Glyceraldehyde-3-phosphate dehydrogenase (Homo sapiens, UniProt P04406)
Chain of Glyceraldehyde-3-phosphate dehydrogenase (P04406 whole entry): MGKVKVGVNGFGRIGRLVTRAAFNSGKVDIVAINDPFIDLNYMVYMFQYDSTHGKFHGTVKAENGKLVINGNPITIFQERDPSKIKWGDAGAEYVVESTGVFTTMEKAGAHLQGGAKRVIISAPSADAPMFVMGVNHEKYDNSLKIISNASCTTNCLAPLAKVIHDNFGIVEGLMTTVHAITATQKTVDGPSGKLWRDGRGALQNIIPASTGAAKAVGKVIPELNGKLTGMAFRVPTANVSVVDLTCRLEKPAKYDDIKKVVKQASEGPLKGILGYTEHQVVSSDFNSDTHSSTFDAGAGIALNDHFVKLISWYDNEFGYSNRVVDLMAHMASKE

[14] = inhibitors of intracellular T. cruzi replication, confirmation, NIH3T3 host cells, beta-gal luminescence (AID 2044); assay type: functional, cell-based;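 further: intracellular parasites grown in NIH/3T3 mouse fibroblasts as host cells; luminescent beta-galactosidase reporter signal from transgenic T. cruzi replicating inside host cells; inhibitors lower the luminescence signal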
[15] = cytotoxicity toward NIH3T3 fibroblasts, dose response, counter-screen, cell-based, ATP luminescence, mouse fibroblasts (AID 2010); assay type: functional;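 further: cells exposed to compound for about 90 hours before reading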
cells = assay type: functional

## CN(CCNC(=O)c1cc2c(=O)n(C)c3ccccc3c2n1C)Cc1ccccc1
[1]
  EC50: 31.5 µM (active)
[2]
  EC50: 23 µM (active)

## CNC(C)C(=O)NC(C(=O)N1CCCC1C(=O)Nc1ccc2[nH]ccc2c1)C(C)C (centres undefined)
[3]
  AC50: 7.54 µM (active)

## Cc1ccc(NC(=O)CCc2c[nH]c3ccccc23)nc1
BJ [4]
  EC50: 12.6 µM (active)
BJ [5]
  EC50: 50.4 µM (active)
BJ [6]
  EC50: > 150 µM (inconclusive)
[7]
  EC50: 17.7 µM (active)

## CC1CCCCN1CC(=O)Nc1ccc(N2CCCCCC2)cc1 (centres undefined)
[8]
  IC50: 101 µM (active)
[3]
  AC50: 17.4 µM (active)

## CC(/C=N/NC(=O)c1cc(-c2ccc(Cl)cc2)nc2ccccc12)=C\c1ccco1
BJ [4]
  EC50: 2.07 µM (active)
BJ [5]
  EC50: 2.73 µM (active)
BJ [6]
  EC50: 22.4 µM (inconclusive)
[7]
  EC50: 2.58 µM (inconclusive)

## CC(C)(C)NC(=O)[C@@H]1C[C@@H]2CCCC[C@@H]2CN1C[C@@H](O)[C@H](Cc1ccccc1)NC(=O)[C@H](CC(N)=O)NC(=O)c1ccc2ccccc2n1
[9]
  CC50: > 40 µM (active)

## CC(C)c1ccc2[nH]c(O)c(N=NC(=O)c3cccc(S(=O)(=O)Nc4ccc(Cl)cc4)c3)c2c1
[10]
  EC50: > 120 µM (not active)
[11]
  EC50: > 120 µM (not active)
[12]
  EC50: > 120 µM (not active)

## Cc1ccc(S(=O)(=O)Oc2ccc(/N=N/c3ccc(-c4ccc(/N=N/c5c(O)ccc6cc(S(=O)(=O)O)cc(S(=O)(=O)O)c56)c(C)c4)cc3C)cc2)cc1
Cytochrome P450 3A4
  AC50: 25.1 µM (inconclusive)

## COc1cc2c(cc1OC)C(c1ccccc1N)=NCC2
[3]
  AC50: 18.6 µM (active)

## CCC1=C2CC[C@H]3C(=O)NC(=O)[C@H]3[C@H]2[C@@]2(C)C(=O)N(CC3CC3)C(=O)N2C1=O
Cytochrome P450 3A4
  AC50: 31.6 µM (inconclusive)

## COc1cccc(N2CCN(C3=C(Cl)C(=O)N(c4ccc([N+](=O)[O-])cc4)C3=O)CC2)c1
[13]
  IC50: > 50 µM (inconclusive)

## CC1(C)OC2CC3C4CC(F)C5=CC(=O)C=C[C@@]5(C)[C@@]4(F)C(O)C[C@@]3(C)[C@]2(C(=O)CO)O1 (some centres undefined)
Cytochrome P450 3A4
  AC50: 39.8 µM (inconclusive)

## COc1ccc(/N=c2\cc(-c3ccc(O)cc3)oc3ccccc23)cc1
[9]
  CC50: 32.9 µM (active)

## CCOC(=O)c1c(NC(=S)NC(=O)/C=C/c2cccs2)sc(C)c1C
[1]
  EC50: 21.2 µM (active)
[2]
  EC50: 21.4 µM (active)

## CNC(=O)C1(C)C=CC2(CCCCC2)N1C(=O)OC (centres undefined)
Cytochrome P450 3A4
  AC50: 25.1 µM (inconclusive)

## Cc1nc2ccc(NC(=O)c3ccc([N+](=O)[O-])cc3[N+](=O)[O-])cc2s1
[14]
  EC50: 0.654 µM (active)
[15]
  EC50: > 60 µM (not active)
cells
  IC50: 1.85 µM (active)
